In article PMC7901654, “Bioisosteric Discovery of NPA101.3, a Second-Generation RET/VEGFR2 Inhibitor Optimized for Single-Agent Polypharmacology” (Journal of Medicinal Chemistry, 2020):

Assays:
[1] = tested on: RET (either transfected or endogenously expressing) mutant cells; experiment: Growth inhibition, all RET mutant cells (summary); format: cell-based; details: range over transfected and endogenously expressing cells; read-out: IC50, growth inhibitory effect on RET mutant cells
Description: Finally, NPA101.3 featured efficacy already at 1 mg/kg/day in RET-driven tumors in nude mice. […] Therefore, though in a therapeutic setting toxicity may be increased by hitting multiple targets, it is feasible that the activity of the NPA101.3 against RET-driven tumors may take advantage of a synergistic combination of cell autonomous (on tumor cell growth mediated by RET inhibition) and non-cell autonomous (on blood vessel formation mediated by VEGFR2 inhibition) effects, potentiating its effect and reducing the chances of resistance development. Several TKIs with anti-RET activity are available, and some are already registered for the treatment of different types of thyroid cancers. […]
(§1) Nthy-ory-3-1 (10000 per well), TPC-1 (10000 per well), MZ-CRC-1 (100000 per well), TT (200000 per well), Lc-2/ad (100000 per well), BCPAP (10000 per well), 8505-C (10000 per well), PC-9 (10000 per well), A549 (10000 per well), CALU-1 (10000 per well), NIH3T3 RET/C634Y (10000 per well), and NIH3T3 HRAS/G12V (10000 per well) were seeded in six-well tissue culture plates. […] Cells were counted every day (Ba/F3), every 2 days (fibroblasts), or every 2–3 days (human cell lines). […] IC50 doses were calculated through a curve fitting analysis from last day of growth curves using the PRISM software program (Graphpad Software Inc.).

[2] = tested on: RET and VEGFR2 in NIH3T3 RET/C634Y tumours; experiment: In vivo target (RET and VEGFR2) inhibition, Western blot of established tumours; design: species or system mouse; details: 3 mg/kg/day p.o. for 2 days, harvested 3 h after last dose
Description: In vivo target (RET and VEGFR2) inhibition was studied by treating animals grafted with NIH3T3 RET/C634Y cells at different doses (0.3, 1, or 3 mg/kg/day p.o.) of NPA101.3 for 2 days and then performing Western blot analysis on protein extracts. […] Then, to determine antitumorigenic activity and to better distinguish RET- and VEGFR2-mediated effects, we tested NPA101.3 in nude mice transplanted with NIH3T3 cells transformed by either RET/C634Y or HRAS/G12V. Before tumors appeared, animals were treated daily with NPA101.3 (1.0, 3.0, or 10.0 mg/kg/day) or left untreated. […] Still, VEGFR2 inhibition was detected also in RAS-driven tumors, an effect that might explain the, albeit reduced, effect of the drug on their growth (Figure S13). Importantly, as predicted, no trace of NPA101.3 demethyl metabolites was detected after 1 or 4 h from oral dosing in mice (Figure S14).
Supplementary Figure S11: In vivo target inhibition of NPA101.3 in nude mice implanted with cells transformed by RET/C634Y […] NIH3T3 RET/C634Y cells (2 x 105) were inoculated subcutaneously into the right and left dorsal portions of nude mice. When tumours reached approximately ~200 mm 3, mice (2 mice/dose) were treated by oral gavage with 3 doses (0, 24, 48 h) of the compound (0.3, 1 and 3 mg/Kg) or left untreated (NT); proteins were harvested 3 h after the last dose. […]

[3] = tested on: RET-driven Ba/F3 cells (RET/C634R, RET/M918T, CCDC6-RET); experiment: Cell growth curves, RET-driven Ba/F3 cells taken together; format: cell-based, murine; details: Mus musculus, BaF3; range over RET-transfected Ba/F3 lines; read-out: IC50, RET-driven Ba/F3 cell proliferation
Source text: The murine pro-B cell line Ba/F3 requires IL-3 (interleukin 3) for proliferation and survival; this dependency is bypassed by active tyrosine kinases. Therefore, the Ba/F3 cell line is a standard cell culture model for determining the activity and drug-mediated inhibition of tyrosine kinases.[42] Accordingly, stable transfection of RET/C634R, RET/M918T, and CCDC6-RET oncoproteins promotes IL-3-independent growth (Figure 5).
as §1, with “plates. Cells were kept in 2% (TPC-1), 5% (Nthy-ori-3-1), or 10% (BCPAP, 8505-C, CALU-1, A549, PC-9, TT, MZ-CRC-1, and Lc-2/ad) fetal calf serum or in 2% (NIH3T3 RET/C634Y and HRAS/G12V) calf serum. Ba/F3 cells (200000 per well in 2 mL) were seeded in six-well tissue culture plates and kept in 10% fetal calf serum.” for “plates.”

In the case of `CC(C)(C)c1cc(NC(=O)Cc2ccc(-n3cnc4cc(-c5ccc(S(C)(=O)=O)cc5)ccc43)cc2)no1` [NPA101.3], the IC50 [1] is reported as 0.67 to 4.17 nM, the “RET autophosphorylation and signaling and VEGFR2 phosphorylation in tumours” value [2] is reported as “strongly inhibited” and the IC50 [3] is reported as 1.6 to 3.1 nM.
